Converted amounts (≈) assume the structure as drawn. Like-named read-outs stand apart in the source and are kept apart here.
Key:
Test in all cases: In vitro MIC, Mueller-Hinton agar, inoculum 10^6 cells/ml
Type in all cases: cell-based
[1] = system: Proteus vulgaris
Excerpt: (§1) Table 6 is a comparison of the in vitro antibacterial activities of Compound 29 and the vinyl homolog thereof FK-482 against clinically important pathogens. Thirty-seven organisms were more than 4-fold more susceptible to Compound 29 than to FK-482. FK-482 has the following formula and is described by Takaya, et al. in U.S. Pat. No. 4,559,334 patented Dec. 17, 1985 (filed Oct. 20, 1983). [drawing 14]
(§2) *; Geometric mean of MIC (μg/ml)
(§3) Mueller-Hinton agar Inoculum size; 10^6 cells/ml

[2] = system: Citrobacter freundii
Excerpt: as §1, §2, §3

[3] = system: Providencia rettgeri
Excerpt: as §1, §2, §3

[4] = system: Serratia marcescens
Excerpt: as §1, §2, §3

[5] = system: Enterobacter aerogenes; details: Klebsiella aerogenes
Excerpt: as §1, §2, §3

[6] = system: Enterobacter cloacae
Excerpt: as §1, §2, §3

[7] = system: Serratia species
Excerpt: as §1, §2, §3

[8] = system: Morganella morganii
Excerpt: as §1, §2, §3

[9] = system: Proteus mirabilis
Excerpt: as §1, §2, §3

MIC ([1]; (GM) of the Proteus vulgaris strains, read-out: Geometric mean of MIC): 6.3 µg/mL (≈ 15.9 µM)
MIC ([1]; strain A 9436, read-out: MIC): 0.4 µg/mL (≈ 1.01 µM)
MIC ([1]; strain A 9526, read-out: MIC): 25 µg/mL (≈ 63.2 µM)
MIC ([1]; strain A 9699, read-out: MIC): 25 µg/mL (≈ 63.2 µM)
MIC ([1]; strain AKH-26, read-out: MIC): > 50 µg/mL
MIC ([1]; strain HX-19 MS-1, read-out: MIC): 0.8 µg/mL (≈ 2.02 µM)
MIC ([1]; strain OX-19 MS-1, read-out: MIC): 3.1 µg/mL (≈ 7.84 µM)
MIC ([2]; (GM) of the Citrobacter freundii strains, read-out: Geometric mean of MIC): 4.1 µg/mL (≈ 10.4 µM)
MIC ([2]; strain A21312, read-out: MIC): > 50 µg/mL
MIC ([2]; strain A22140, read-out: MIC): 3.1 µg/mL (≈ 7.84 µM)
MIC ([2]; strain A22141, read-out: MIC): 3.1 µg/mL (≈ 7.84 µM)
MIC ([2]; strain A22142, read-out: MIC): 0.8 µg/mL (≈ 2.02 µM)
MIC ([2]; strain A22160, read-out: MIC): 6.3 µg/mL (≈ 15.9 µM)
MIC ([2]; strain A22161, read-out: MIC): 0.8 µg/mL (≈ 2.02 µM)
MIC ([2]; strain A22166, read-out: MIC): 3.1 µg/mL (≈ 7.84 µM)
MIC ([2]; strain A22175, read-out: MIC): 0.8 µg/mL (≈ 2.02 µM)
MIC ([2]; strain A22176, read-out: MIC): 3.1 µg/mL (≈ 7.84 µM)
MIC ([2]; strain A22177, read-out: MIC): 50 µg/mL (≈ 126 µM)
MIC ([3]; (GM) of the Providencia rettgeri strains, read-out: Geometric mean of MIC): 0.07 µg/mL (≈ 0.177 µM)
MIC ([3]; IFO3850, strain IFO 3850 MS-1, read-out: MIC): 0.013 µg/mL (≈ 0.0329 µM)
MIC ([3]; strain A 9637, read-out: MIC): < 0.0063 µg/mL
MIC ([3]; strain A15167 (first line), read-out: MIC): 0.013 µg/mL (≈ 0.0329 µM)
MIC ([3]; strain A15167 (second line), read-out: MIC): 0.1 µg/mL (≈ 0.253 µM)
MIC ([3]; strain A20645, read-out: MIC): 6.3 µg/mL (≈ 15.9 µM)
MIC ([3]; strain A20915, read-out: MIC): 3.1 µg/mL (≈ 7.84 µM)
MIC ([3]; strain A20920, read-out: MIC): 0.013 µg/mL (≈ 0.0329 µM)
MIC ([3]; strain A20921, read-out: MIC): 0.025 µg/mL (≈ 0.0632 µM)
MIC ([3]; strain A21205, read-out: MIC): 0.1 µg/mL (≈ 0.253 µM)
MIC ([3]; strain A21270, read-out: MIC): 0.1 µg/mL (≈ 0.253 µM)
MIC ([4]; (GM) of the Serratia marcescens strains, read-out: Geometric mean of MIC): 31 µg/mL (≈ 78.4 µM)
MIC ([4]; strain A20019, read-out: MIC): 12.5 µg/mL (≈ 31.6 µM)
MIC ([4]; strain A20222, read-out: MIC): 25 µg/mL (≈ 63.2 µM)
MIC ([4]; strain A20333, read-out: MIC): > 50 µg/mL
MIC ([4]; strain A20334, read-out: MIC): > 50 µg/mL
MIC ([4]; strain A20335, read-out: MIC): 12.5 µg/mL (≈ 31.6 µM)
MIC ([4]; strain A20336, read-out: MIC): 12.5 µg/mL (≈ 31.6 µM)
MIC ([4]; strain A20442, read-out: MIC): 3.1 µg/mL (≈ 7.84 µM)
MIC ([4]; strain A20459, read-out: MIC): > 50 µg/mL
MIC ([4]; strain A20460, read-out: MIC): 50 µg/mL (≈ 126 µM)
MIC ([4]; strain A20461, read-out: MIC): > 50 µg/mL
MIC ([5]; (GM) of the Enterobacter aerogenes strains, read-out: Geometric mean of MIC): 9.8 µg/mL (≈ 24.8 µM)
MIC ([5]; strain A20940, read-out: MIC): > 50 µg/mL
MIC ([5]; strain A20941, read-out: MIC): 6.3 µg/mL (≈ 15.9 µM)
MIC ([5]; strain A20943, read-out: MIC): 6.3 µg/mL (≈ 15.9 µM)
MIC ([5]; strain A20958, read-out: MIC): 6.3 µg/mL (≈ 15.9 µM)
MIC ([5]; strain A20961, read-out: MIC): 12.5 µg/mL (≈ 31.6 µM)
MIC ([5]; strain A20966, read-out: MIC): 6.3 µg/mL (≈ 15.9 µM)
MIC ([5]; strain A20971, read-out: MIC): 6.3 µg/mL (≈ 15.9 µM)
MIC ([5]; strain A20985, read-out: MIC): > 50 µg/mL
MIC ([5]; strain A20994, read-out: MIC): 25 µg/mL (≈ 63.2 µM)
MIC ([5]; strain A20996, read-out: MIC): 3.1 µg/mL (≈ 7.84 µM)
MIC ([5]; strain A21013, read-out: MIC): 6.3 µg/mL (≈ 15.9 µM)
MIC ([5]; strain A21036, read-out: MIC): 50 µg/mL (≈ 126 µM)
MIC ([5]; strain A21037, read-out: MIC): 3.1 µg/mL (≈ 7.84 µM)
MIC ([5]; strain A21038, read-out: MIC): 1.6 µg/mL (≈ 4.05 µM)
MIC ([5]; strain A21039, read-out: MIC): 6.3 µg/mL (≈ 15.9 µM)
MIC ([5]; strain A21043, read-out: MIC): 25 µg/mL (≈ 63.2 µM)
MIC ([5]; strain A21044, read-out: MIC): 25 µg/mL (≈ 63.2 µM)
MIC ([5]; strain A21118, read-out: MIC): > 50 µg/mL
MIC ([5]; strain A21120, read-out: MIC): 6.3 µg/mL (≈ 15.9 µM)
MIC ([5]; strain A21130-1, read-out: MIC): 6.3 µg/mL (≈ 15.9 µM)
MIC ([5]; strain A21131, read-out: MIC): 6.3 µg/mL (≈ 15.9 µM)
MIC ([5]; strain A21152, read-out: MIC): 1.6 µg/mL (≈ 4.05 µM)
MIC ([5]; strain A21155, read-out: MIC): 6.3 µg/mL (≈ 15.9 µM)
MIC ([5]; strain A21158, read-out: MIC): 6.3 µg/mL (≈ 15.9 µM)
MIC ([5]; strain A21503, read-out: MIC): 6.3 µg/mL (≈ 15.9 µM)
MIC ([6]; (GM) of the Enterobacter cloacae strains, read-out: Geometric mean of MIC): 21 µg/mL (≈ 53.1 µM)
MIC ([6]; strain A 9655, read-out: MIC): > 50 µg/mL
MIC ([6]; strain A 9659, read-out: MIC): > 50 µg/mL
MIC ([6]; strain A20344, read-out: MIC): > 50 µg/mL
MIC ([6]; strain A20364, read-out: MIC): 6.3 µg/mL (≈ 15.9 µM)
MIC ([6]; strain A20464, read-out: MIC): 3.1 µg/mL (≈ 7.84 µM)
MIC ([6]; strain A20650, read-out: MIC): 0.8 µg/mL (≈ 2.02 µM)
MIC ([6]; strain A22551, read-out: MIC): > 50 µg/mL
MIC ([7]; (GM) of the Serratia species strains, read-out: Geometric mean of MIC): > 50 µg/mL
MIC ([7]; strain 6-330, read-out: MIC): 25 µg/mL (≈ 63.2 µM)
MIC ([7]; strain 6-427, read-out: MIC): 25 µg/mL (≈ 63.2 µM)
MIC ([7]; strain 6-920, read-out: MIC): > 50 µg/mL
MIC ([7]; strain 7-255, read-out: MIC): > 50 µg/mL
MIC ([7]; strain 7-454, read-out: MIC): > 50 µg/mL
MIC ([7]; strain 7-2322, read-out: MIC): > 50 µg/mL
MIC ([7]; strain 8-185, read-out: MIC): > 50 µg/mL
MIC ([7]; strain 8-513, read-out: MIC): > 50 µg/mL
MIC ([7]; strain 8-785, read-out: MIC): > 50 µg/mL
MIC ([7]; strain 8-1537, read-out: MIC): > 50 µg/mL
MIC ([7]; strain 9-50, read-out: MIC): > 50 µg/mL
MIC ([7]; strain 9-690, read-out: MIC): > 50 µg/mL
MIC ([8]; (GM) of the Morganella morganii strains, read-out: Geometric mean of MIC): 25 µg/mL (≈ 63.2 µM)
MIC ([8]; IFO3843, strain IFO 3843 MS-1, read-out: MIC): 12.5 µg/mL (≈ 31.6 µM)
MIC ([8]; strain A 9636, read-out: MIC): > 50 µg/mL
MIC ([8]; strain A20455, read-out: MIC): 12.5 µg/mL (≈ 31.6 µM)
MIC ([9]; (GM) of the Proteus mirabilis strains, read-out: Geometric mean of MIC): 0.14 µg/mL (≈ 0.354 µM)
MIC ([9]; IFO3849, strain IFO 3849 MS-1, read-out: MIC): 0.2 µg/mL (≈ 0.506 µM)
MIC ([9]; strain A 9554, read-out: MIC): 0.2 µg/mL (≈ 0.506 µM)
MIC ([9]; strain A 9702, read-out: MIC): 0.1 µg/mL (≈ 0.253 µM)
MIC ([9]; strain A 9716, read-out: MIC): 0.2 µg/mL (≈ 0.506 µM)
MIC ([9]; strain A20119, read-out: MIC): 0.1 µg/mL (≈ 0.253 µM)
MIC ([9]; strain A20342, read-out: MIC): 0.2 µg/mL (≈ 0.506 µM)
MIC ([9]; strain A20454, read-out: MIC): 0.1 µg/mL (≈ 0.253 µM)
MIC ([9]; strain A21222, read-out: MIC): 0.1 µg/mL (≈ 0.253 µM)
Structure (SMILES): C=CC1=C(C(=O)O)N2C(=O)[C@@H](NC(=O)/C(=N\O)c3csc(N)n3)[C@H]2SC1 [FK-482, reference compound]

— patent US4874856A, “3-(substituted)propenyl-7-(aminothiazolylacetamido) ceph-3-em-4-carboxylic acids and esters thereof” (Bristol-Myers Company, priority 1987, dated 1989)
